One molecule from ChEMBL document CHEMBL1150681, “New acetylenic acids from the marine sponge Stelletta species” (2003) can be followed below.

Structures are written as SMILES. In brackets after ≈: the same amount, converted by molar mass.

Format in all cases: functional
Holding throughout (details): read-out: ED50 (the source's name)

One test concerns SK-OV-3. The test is described as follows: Cytotoxicity against human SKOV3 cells.
The next test relates to SK-MEL-2. The test can be described thus: Cytotoxicity against human SK-MEL-2 cells.
Another test concerns A549. The test can be described thus: Cytotoxicity against human A549 cells.
The subject of the next test is XF498. The test can be described thus: Cytotoxicity against human XF498 cells.
In another test the test system is HCT-15. The test can be described thus: Cytotoxicity against human HCT15 cells.

In the case of `COc1cccc2c1C(=O)c1c(O)c3c(c(O)c1C2=O)C[C@@](O)(C(=O)CO)C[C@@H]3O[C@H]1C[C@H](N)[C@H](O)[C@H](C)O1` [DOXORUBICIN], the EC50 in the test with SK-OV-3 is 0.15 µg/mL (≈ 0.276 µM); with SK-MEL-2, 0.03 µg/mL (≈ 0.0552 µM); in the test on A549 it was 0.03 µg/mL (≈ 0.0552 µM); in the test on XF498, 0.15 µg/mL (≈ 0.276 µM); with HCT-15 it was 0.07 µg/mL (≈ 0.129 µM).
